Results reported in patent US20250205384A1, “HEMOSTATIC MATERIAL” (Toray Industries, Inc., priority 2018, published 2025).

Assays:
[1] = Thickness of lipid membrane from SEM observation image; assay type: physicochemical; settings: lipid on PLLA fiber sheet, SEM ×5,000 (FIGS. 17 to 20)
Description: The thickness of the lipid membrane is preferably 10 to 1,000 nm, more preferably 30 to 500 nm, and still more preferably 60 to 240 nm. The method of measuring the lipid membrane is as follows. The lipid membrane is observed with a scanning electron microscope (SEM). The thickness of five points optionally selected in the SEM observation image is measured, and the mean is regarded as the thickness of the lipid membrane.
An SEM observation image (×1,000) of the base complex before supporting a lipid is shown in FIG. 9, and SEM observation images (×1,000) of the hemostatic materials E2 to E8 are shown in FIGS. 10 to 16, respectively.

guinea pig-derived PRP = experiment: Evaluation of platelet aggregation capacity of hemostatic material (in vitro), protein assay of attached platelets; assay type: cell-based; settings: lipid supported on base part in place of DHSG lipids
Description: From the hemostatic materials D1, D2, D3 and D4, a base part (fiber sheet part) supporting DHSG, Asp-DHSG, Glu-DHSG and AG-DHSG, respectively, was taken out. To a 12-well plate, the base part (fiber sheet part) that was taken out and 1 mL of guinea pig-derived PRP (2.0×10^5/μL) prepared by the abovementioned method were added. Thereafter, ADP (1 μM, 100 μL) that activates platelets was added, and after allowing to stand at room temperature for 5 minutes, the mixture was washed with 1 mL of DPBS twice. Thereafter, to dissolve platelets attached to the base part (fiber sheet part), 500 μL of 0.5% Triton X was added, followed by allowing to stand at room temperature for 1 hour to obtain a platelet lysate. To a 96-well plate, 10 μL of the platelet lysate prepared by the abovementioned method and 150 μL of Pierce (trademark) 660 nm Protein Assay Kit were added, followed by allowing to stand for 5 minutes. By measuring absorbance at 660 nm using a microplate reader, proteins were quantitatively determined, and the determination results were used as an index of the count of platelets which were not washed away and were attached to the fiber sheet. The results in FIG. 8 are relative values when the platelet count in using the hemostatic material D1 is regarded as 1. […]

[2] = Solubility in t-butyl alcohol; settings: in words

With `CCCCCCCCCCCCCCCCOC(=O)CCC(NC(=O)CCC(=O)NC(CCC(=O)NC(CC(=O)O)C(=O)O)C(=O)NC(CC(=O)O)C(=O)O)C(=O)OCCCCCCCCCCCCCCCC` (stereo not drawn) [AG-DHSG] the “thickness of the lipid membrane” value [1] was 124 nm.
For `CCCCCCCCCCCCCCCCOC(=O)CCC(NC(=O)CCC(=O)NC(CCC(=O)O)C(=O)O)C(=O)OCCCCCCCCCCCCCCCC` (stereo not drawn) [Glu-DHSG], the “thickness of the lipid membrane” value [1] was 187 nm.
In the case of `CCCCCCCCCCCCCCCCOC(=O)CCC(NC(=O)CCC(=O)NC(CC(=O)O)C(=O)O)C(=O)OCCCCCCCCCCCCCCCC` (stereo not drawn) [Asp-DHSG], the “thickness of the lipid membrane” value [1] is reported as 153 nm.
With `CCCCCCCCCCCCCCCC(=O)OC[C@H](COP(=O)([O-])OCC[N+](C)(C)C)OC(=O)CCCCCCCCCCCCCCC` [DPPC, 1,2-dipalmitoyl-sn-glycero-3-phosphatidylcholine] the “platelets detected on the base part (fiber sheet part) after washing” value (guinea pig-derived PRP) was “no platelets were detected”.
In the case of `CCCCCCCCCCCCCCCC(=O)OCC(COP(=O)(O)O)OC(=O)CCCCCCCCCCCCCCC` (stereo not drawn) [Anionic DPPA], the “solubility in t-butyl alcohol compared with the DPPA sodium salt” value [2] is reported as “higher solubility in t-butyl alcohol”.
In the case of `CCCCCCCCCCCCCCCCOC(=O)CCC(NC(=O)CCC(=O)O)C(=O)OCCCCCCCCCCCCCCCC` [DHSG, 1,5-Dihexadecyl-N-Succinyl-L-Glutamate], the “thickness of the lipid membrane” value [1] is reported as 131 nm.
